Inconclusive results and toxic doses are left out.
System: L1210 leukemia ip in BDF1 mice, survival T/C
Experiment: NCI In Vivo Anticancer Drug Screen. Data for tumor model L1210 Leukemia (intraperitoneal) in B6D2F1 (BDF1) mice
Settings: endpoint: mean survival time, higher = longer survival
Outline: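 Survival endpoint. Drug-treated group vs vehicle group, expressed as T divided by C. Tumor passaged by transplantation.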

[1] = dose: 100.0 mg/kg/injection, schedule: Q01DX009 (ip), vehicle: Klucel (hydroxypropylcellulose) (HPC)
[2] = dose: 100.0 mg/kg/injection, schedule: Q04DX003 (ip), vehicle: saline with Tween-80
[3] = dose: 200.0 mg/kg/injection, schedule: Q01DX009 (ip), vehicle: Klucel (hydroxypropylcellulose) (HPC)
[4] = dose: 200.0 mg/kg/injection, schedule: Q04DX003 (ip), vehicle: saline with Tween-80
[5] = dose: 400.0 mg/kg/injection, schedule: Q04DX003 (ip), vehicle: saline with Tween-80
[6] = dose: 100.0 mg/kg/injection, schedule: Q04DX003 (ip), vehicle: Klucel (hydroxypropylcellulose) (HPC)
[7] = dose: 5.0 mg/kg/injection, schedule: Q01DX009 (ip), vehicle: Klucel (hydroxypropylcellulose) (HPC)
[8] = dose: 10.0 mg/kg/injection, schedule: Q01DX009 (ip), vehicle: Klucel (hydroxypropylcellulose) (HPC)

S=c1nc[nH]c2c1ncn2CN1CCCCC1
T/C (dose: 25.0 mg/kg/injection, schedule: Q01DX009 (ip), vehicle: other): 151 % of control | T/C (dose: 25.0 mg/kg/injection, schedule: Q01DX Z (ip), vehicle: carboxymethylcellulose (CMC)): 109 % of control | T/C (dose: 50.0 mg/kg/injection, schedule: Q01DX009 (ip), vehicle: other): 192 % of control | T/C (dose: 50.0 mg/kg/injection, schedule: Q01DX Z (ip), vehicle: carboxymethylcellulose (CMC)): 102 % of control | T/C (dose: 100.0 mg/kg/injection, schedule: Q01DX009 (ip), vehicle: other): 116 % of control | T/C (dose: 100.0 mg/kg/injection, schedule: Q01DX Z (ip), vehicle: carboxymethylcellulose (CMC)): 120 % of control | T/C (dose: 200.0 mg/kg/injection, schedule: Q01DX009 (ip), vehicle: other): 102 % of control

c1ccc(C(c2ccccc2)[Si](c2ccccc2)(c2ccccc2)C(c2ccccc2)c2ccccc2)cc1
T/C (dose: 25.6 mg/kg/injection, schedule: Q04DX002 (ip), vehicle: saline with Tween-80): 107 % of control | T/C (dose: 50.0 mg/kg/injection, schedule: Q01DX009 (ip), vehicle: Klucel (hydroxypropylcellulose) (HPC)): 90 % of control | T/C (dose: 64.0 mg/kg/injection, schedule: Q04DX002 (ip), vehicle: saline with Tween-80): 100 % of control | T/C [1]: 86 % of control | T/C [2]: 94 % of control | T/C (dose: 160.0 mg/kg/injection, schedule: Q04DX002 (ip), vehicle: saline with Tween-80): 100 % of control | T/C [3]: 88 % of control | T/C [4]: 96 % of control | T/C (dose: 400.0 mg/kg/injection, schedule: Q04DX002 (ip), vehicle: saline with Tween-80): 110 % of control | T/C [5]: 91 % of control

CC(=O)NN=C1CCC(=NNC(C)=O)CC1
T/C (dose: 12.5 mg/kg/injection, schedule: Q04DX003 (ip), vehicle: Klucel (hydroxypropylcellulose) (HPC)): 97 % of control | T/C (dose: 25.0 mg/kg/injection, schedule: Q04DX003 (ip), vehicle: Klucel (hydroxypropylcellulose) (HPC)): 94 % of control | T/C (dose: 50.0 mg/kg/injection, schedule: Q04DX003 (ip), vehicle: Klucel (hydroxypropylcellulose) (HPC)): 108 % of control | T/C [6]: 110 % of control

CC(C)CCOC(=O)C1(C)OC1c1ccccc1 (centres undefined)
T/C (dose: 100.0 mg/kg/injection, schedule: Q04DX002 (ip), vehicle: saline): 101 % of control | T/C (dose: 200.0 mg/kg/injection, schedule: Q04DX002 (ip), vehicle: saline): 97 % of control | T/C (dose: 400.0 mg/kg/injection, schedule: Q04DX002 (ip), vehicle: saline): 93 % of control

Cc1cnc(C(=O)O)c(N)n1
T/C (dose: 75.0 mg/kg/injection, schedule: Q01DX001 (ip), vehicle: saline): 105 % of control | T/C (dose: 150.0 mg/kg/injection, schedule: Q01DX001 (ip), vehicle: saline): 93 % of control

CC(=O)NCCCc1c(C)nc(N)[nH]c1=O
T/C (dose: 62.5 mg/kg/injection, schedule: Q01DX001 (ip), vehicle: Klucel (hydroxypropylcellulose) (HPC)): 102 % of control | T/C (dose: 125.0 mg/kg/injection, schedule: Q01DX001 (ip), vehicle: Klucel (hydroxypropylcellulose) (HPC)): 102 % of control | T/C (dose: 250.0 mg/kg/injection, schedule: Q01DX001 (ip), vehicle: Klucel (hydroxypropylcellulose) (HPC)): 102 % of control

NC(CCl)=NCC1CCCCCC1
T/C (dose: 25.0 mg/kg/injection, schedule: Q04DX002 (ip), vehicle: Klucel (hydroxypropylcellulose) (HPC)): 107 % of control | T/C (dose: 50.0 mg/kg/injection, schedule: Q04DX002 (ip), vehicle: Klucel (hydroxypropylcellulose) (HPC)): 100 % of control | T/C (dose: 100.0 mg/kg/injection, schedule: Q04DX002 (ip), vehicle: Klucel (hydroxypropylcellulose) (HPC)): 101 % of control

CC(=O)n1c(N)nc2ccccc21
T/C [1]: 103 % of control | T/C [3]: 102 % of control

Cn1cnc(N)c1S(=O)(=O)Nc1cccc2ccccc12
T/C (dose: 100.0 mg/kg/injection, schedule: Q04DX003 (ip), vehicle: other): 100 % of control | T/C (dose: 200.0 mg/kg/injection, schedule: Q04DX003 (ip), vehicle: other): 102 % of control | T/C (dose: 400.0 mg/kg/injection, schedule: Q04DX003 (ip), vehicle: other): 101 % of control

Nc1nc(-c2ccccc2)c(CCCOc2ccc([N+](=O)[O-])cc2)c(=O)[nH]1
T/C (dose: 50.0 mg/kg/injection, schedule: Q01DX001 (ip), vehicle: carboxymethylcellulose (CMC)): 88 % of control | T/C (dose: 100.0 mg/kg/injection, schedule: Q01DX001 (ip), vehicle: carboxymethylcellulose (CMC)): 91 % of control | T/C (dose: 400.0 mg/kg/injection, schedule: Q01DX001 (ip), vehicle: carboxymethylcellulose (CMC)): 88 % of control

C=C(Cl)CSC1=NCCS1
T/C (dose: 100.0 mg/kg/injection, schedule: Q04DX002 (sc), vehicle: olive oil, sesame oil, peanut oil): 90 % of control | T/C (dose: 200.0 mg/kg/injection, schedule: Q04DX002 (sc), vehicle: olive oil, sesame oil, peanut oil): 100 % of control | T/C (dose: 400.0 mg/kg/injection, schedule: Q04DX002 (sc), vehicle: olive oil, sesame oil, peanut oil): 100 % of control

COP(=O)(OC)C(OC(=O)C(C)(C)C)=C(C)C
T/C [2]: 98 % of control | T/C [4]: 110 % of control | T/C [5]: 93 % of control

COc1ccc(Cl)cc1NC(=O)Nc1ccc(Nc2ccccc2)cc1
T/C [1]: 104 % of control | T/C [6]: 101 % of control | T/C [3]: 101 % of control | T/C (dose: 200.0 mg/kg/injection, schedule: Q04DX003 (ip), vehicle: Klucel (hydroxypropylcellulose) (HPC)): 98 % of control | T/C (dose: 400.0 mg/kg/injection, schedule: Q01DX009 (ip), vehicle: Klucel (hydroxypropylcellulose) (HPC)): 86 % of control | T/C (dose: 400.0 mg/kg/injection, schedule: Q04DX003 (ip), vehicle: Klucel (hydroxypropylcellulose) (HPC)): 97 % of control

CC(C)(C)OC1C=CCCC1 (centres undefined)
T/C [2]: 96 % of control | T/C [4]: 96 % of control | T/C [5]: 96 % of control

Nc1nc(N)c2nc(CNc3ccc(C(=O)NCC(=O)O)cc3)cnc2n1
T/C [7]: 93 % of control | T/C [8]: 101 % of control | T/C (dose: 20.0 mg/kg/injection, schedule: Q01DX009 (ip), vehicle: Klucel (hydroxypropylcellulose) (HPC)): 109 % of control | T/C (dose: 40.0 mg/kg/injection, schedule: Q01DX009 (ip), vehicle: Klucel (hydroxypropylcellulose) (HPC)): 105 % of control

CCCC[Si](C)(C)CCCC
T/C (dose: 100.0 mg/kg/injection, schedule: Q01DX001 (ip), vehicle: saline): 103 % of control | T/C (dose: 200.0 mg/kg/injection, schedule: Q01DX001 (ip), vehicle: saline): 105 % of control | T/C (dose: 400.0 mg/kg/injection, schedule: Q01DX001 (ip), vehicle: saline): 100 % of control

Clc1ccc2c(c1)-c1ccccc1C1=NCCN12
T/C [7]: 95 % of control | T/C [8]: 101 % of control | T/C (dose: 10.0 mg/kg/injection, schedule: Q04DX003 (ip), vehicle: Klucel (hydroxypropylcellulose) (HPC)): 101 % of control | T/C (dose: 20.0 mg/kg/injection, schedule: Q04DX003 (ip), vehicle: Klucel (hydroxypropylcellulose) (HPC)): 110 % of control

CC1CCCC2C(=O)CCC(C(C)(C)O)C12C (centres undefined)
T/C (dose: 100.0 mg/kg/injection, schedule: Q01DX009 (ip), vehicle: saline with Tween-80): 91 % of control | T/C [2]: 92 % of control | T/C (dose: 200.0 mg/kg/injection, schedule: Q01DX009 (ip), vehicle: saline with Tween-80): 95 % of control | T/C [4]: 92 % of control | T/C (dose: 400.0 mg/kg/injection, schedule: Q01DX009 (ip), vehicle: saline with Tween-80): 93 % of control | T/C [5]: 92 % of control

CC(=O)C(O)N1C(=O)C=CC1=O (centres undefined)
T/C (dose: 1.25 mg/kg/injection, schedule: Q01DX009 (ip), vehicle: saline): 103 % of control | T/C (dose: 1.25 mg/kg/injection, schedule: Q#A X018 (ip), vehicle: saline): 103 % of control | T/C (dose: 2.5 mg/kg/injection, schedule: Q01DX009 (ip), vehicle: saline): 100 % of control | T/C (dose: 2.5 mg/kg/injection, schedule: Q04DX003 (ip), vehicle: water): 104 % of control | T/C (dose: 2.5 mg/kg/injection, schedule: Q## X006 (ip), vehicle: water): 104 % of control | T/C (dose: 2.5 mg/kg/injection, schedule: Q#A X018 (ip), vehicle: saline): 102 % of control | T/C (dose: 5.0 mg/kg/injection, schedule: Q01DX009 (ip), vehicle: saline): 91 % of control | T/C (dose: 5.0 mg/kg/injection, schedule: Q04DX003 (ip), vehicle: water): 102 % of control | T/C (dose: 5.0 mg/kg/injection, schedule: Q## X006 (ip), vehicle: water): 102 % of control | T/C (dose: 5.0 mg/kg/injection, schedule: Q#A X018 (ip), vehicle: saline): 100 % of control | T/C (dose: 10.0 mg/kg/injection, schedule: Q## X006 (ip), vehicle: water): 104 % of control | T/C (dose: 10.0 mg/kg/injection, schedule: Q#A X018 (ip), vehicle: saline): 100 % of control
